Earlier results on 1 compound are cited in patent publication US20050244368A1, “Pre-endoscopic use of polyethylene glycol compositions” (priority 2004, published 2005).

For this data set the following is noted: % of adult patients (Zwas et al., 1996).

Consider `O=P(O)(O)O` [sodium phosphate], for which the “colonic mucosal changes mimicking inflammatory bowel disease” value was “up to 24%”.
